The NIST ThermoML archive (doi:10.1016/j.jct.2017.05.001)

Assay: wn = mass fraction of the nth substance listed
Conditions: Liquid; for mass density: Vibrating tube method

OCCN(CCO)CCO [triethanolamine] + O
viscosity [mPa·s]
Conditions	w1 = 0.0992	w1 = 0.1	w1 = 0.2	w1 = 0.2991	w1 = 0.3	w1 = 0.4
313.15 K, 30000 kPa, Falling or rolling sphere viscometry	0.8992	–	1.228	1.846	–	2.889
313.15 K, 40000 kPa, Falling or rolling sphere viscometry	0.9027	–	1.231	1.861	–	2.928
313.15 K, 60000 kPa, Falling or rolling sphere viscometry	0.91	–	1.251	1.893	–	3.028
313.15 K, 80000 kPa, Falling or rolling sphere viscometry	0.9177	–	1.276	1.933	–	3.115
313.15 K, 100000 kPa, Falling or rolling sphere viscometry	0.9261	–	1.282	1.98	–	3.193
333.15 K, 100 kPa, Concentric cylinders viscometry	–	0.621	0.821	–	1.173	1.669
333.15 K, 100 kPa, Falling or rolling sphere viscometry	0.6124	–	0.8083	1.147	–	1.67
333.15 K, 5000 kPa, Falling or rolling sphere viscometry	0.6114	–	0.8084	1.154	–	1.68
333.15 K, 10000 kPa, Falling or rolling sphere viscometry	0.6149	–	0.8125	1.164	–	1.698
333.15 K, 15000 kPa, Falling or rolling sphere viscometry	0.6154	–	0.8177	1.168	–	1.704
333.15 K, 20000 kPa, Falling or rolling sphere viscometry	0.6178	–	0.82	1.178	–	1.72
333.15 K, 25000 kPa, Falling or rolling sphere viscometry	0.6198	–	0.8238	1.181	–	1.738
333.15 K, 30000 kPa, Falling or rolling sphere viscometry	0.6221	–	0.8283	1.189	–	1.748
333.15 K, 40000 kPa, Falling or rolling sphere viscometry	0.625	–	0.8329	1.203	–	1.771
333.15 K, 60000 kPa, Falling or rolling sphere viscometry	0.6327	–	0.8473	1.225	–	1.826
333.15 K, 80000 kPa, Falling or rolling sphere viscometry	0.6418	–	0.8631	1.253	–	1.878
333.15 K, 100000 kPa, Falling or rolling sphere viscometry	0.6513	–	0.8789	1.293	–	1.964

mass density [kg/m3]
Conditions	w1 = 0.0992	w1 = 0.2	w1 = 0.2991	w1 = 0.4
313.15 K, 30000 kPa	1019.1	1033.7	1048.8	1066
313.15 K, 40000 kPa	1023	1037.6	1052.6	1069.7
313.15 K, 50000 kPa	1026.8	1041.2	1056.1	1073.2
313.15 K, 60000 kPa	1030.7	1044.9	1059.7	1076.6
313.15 K, 70000 kPa	1034.4	1048.5	1063.2	1079.9
313.15 K, 80000 kPa	1038	1051.9	1066.6	1083.1
313.15 K, 90000 kPa	1041.6	1055.3	1069.9	1086.3
313.15 K, 100000 kPa	1045.2	1058.8	1073.3	1089.5
313.15 K, 110000 kPa	1048.6	1062.1	1076.4	1092.7
313.15 K, 120000 kPa	1052	1065.6	1079.6	1095.7
313.15 K, 130000 kPa	1055.3	1068.7	1082.8	1098.7
313.15 K, 140000 kPa	1058.5	1071.9	1085.9	1101.7
333.15 K, 100 kPa	997.2	1011.6	1026.3	1043.1
333.15 K, 500 kPa	997.5	1011.8	1026.5	1043.3
333.15 K, 1000 kPa	997.7	1012	1026.7	1043.5
333.15 K, 2000 kPa	998.1	1012.4	1027.2	1043.9
333.15 K, 5000 kPa	999.3	1013.6	1028.3	1045.1
333.15 K, 10000 kPa	1001.4	1015.7	1030.4	1047.1
333.15 K, 15000 kPa	1003.5	1017.7	1032.4	1049
333.15 K, 20000 kPa	1005.5	1019.7	1034.3	1050.9
333.15 K, 30000 kPa	1009.6	1023.6	1038.2	1054.7
333.15 K, 40000 kPa	1013.6	1027.7	1042.1	1058.4
333.15 K, 50000 kPa	1017.5	1031.4	1045.7	1062
333.15 K, 60000 kPa	1021.3	1035	1049.4	1065.6
333.15 K, 70000 kPa	1024.8	1038.6	1052.9	1069
333.15 K, 80000 kPa	1028.6	1042.1	1056.3	1072.3
333.15 K, 90000 kPa	1032	1045.6	1059.7	1075.5
333.15 K, 100000 kPa	1035.6	1049.1	1063.2	1078.9
333.15 K, 110000 kPa	1039	1052.3	1066.3	1082
333.15 K, 120000 kPa	1042.5	1055.8	1069.8	1085.3
